Data taken from patent US20240041042A1, “1-(PYRIDYL)-5-AZINYLPYRAZOLE DERIVATIVES, AND THEIR USE FOR CONTROL OF UNDESIRED PLANT GROWTH” (Bayer Aktiengesellschaft, priority 2020, published 2024).
Like-named read-outs stand apart in the source and are kept apart here.

What was measured:
Type in all cases: in vivo
[1] = system: Matricaria inodora (MATIN); test: Post-emergence herbicidal action against MATIN
Experimental: Seeds of monocotyledonous and dicotyledonous weeds and crop plants are placed in sandy loam in plastic or organic planting pots, covered with soil and cultivated in a greenhouse under controlled growth conditions. 2 to 3 weeks after sowing, the test plants are treated at the one-leaf stage. The compounds of the invention, formulated in the form of wettable powders (WP) or as emulsion concentrates (EC), are then sprayed onto the green parts of the plants as aqueous suspension or emulsion with addition of 0.5% additive at a water application rate of 600 l/ha (converted). After the test plants have been kept in the greenhouse under optimum growth conditions for about 3 weeks, the activity of the preparations is rated visually in comparison to untreated controls. For example, 100% activity=the plants have died, 0% activity=like control plants.
Tables B1 to B13 below show the effects of selected compounds of the general formula (I) according to Table 1 on various harmful plants and at an application rate corresponding to 320 g/ha or lower, which were obtained by the experimental procedure mentioned above. The appendices “a”, “b” and “c” give differentiation by dosage used with otherwise the same harmful plants tested.

Lolium rigidum (LOLRI) [2] = test: Post-emergence herbicidal action against LOLRI
Method in brief: (§1)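 Rates were 320 g/ha or below, applied as aqueous WP/EC spray with 0.5% additive (600 l/ha) onto one-leaf-stage plants. About 3 weeks later in the greenhouse, damage was scored visually against untreated plants on a 0–100% scale, where 100% means plants died.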

Viola tricolor (VIOTR) [3] = test: Pre-emergence herbicidal action against VIOTR
Method in brief: (§2)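 Pre-emergence soil-surface spray of compound, formulated as wettable powder or emulsion concentrate, in aqueous suspension or emulsion with 0.5% additive (600 l/ha; rate 320 g/ha or less). Activity rated visually after roughly 3 weeks in the greenhouse as a percentage of untreated controls, 0% meaning no difference.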

[4] = system: Amaranthus retroflexus (AMARE); test: Post-emergence herbicidal action against AMARE
Method in brief: as §1

Oryza sativa (ORYSA) = settings: crop plant compatibility
Method in brief: (§3)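 Visual rating (% effect vs. untreated plants; 100% = plant death) made about 3 weeks after treatment. Plants had been sprayed at one-leaf stage, 2–3 weeks post-sowing, with aqueous WP/EC preparations containing 0.5% additive, 600 l/ha water volume; a, b, c mark dose levels.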

Zea mays (ZEAMX) = system: Zea mays (ZEAMX)
Method in brief: as §3

Setaria viridis (SETVI) [5] = test: Post-emergence herbicidal action against SETVI
Method in brief: as §1

[6] = system: Verconica persica (VERPE); test: Pre-emergence herbicidal action against VERPE; settings: dosage 320 g/ha
Method in brief: as §2

Avena fatua (AVEFA) [7] = test: Post-emergence herbicidal action against AVEFA; settings: visual rating about 3 weeks after treatment
Method in brief: as §1

[8] = system: Verconica persica (VERPE); test: Post-emergence herbicidal action against VERPE
Method in brief: as §1

Avena fatua (AVEFA) [9] = test: Pre-emergence herbicidal action against AVEFA; settings: visual scoring after about 3 weeks vs untreated controls
Method in brief: as §2

[10] = system: Matricaria inodora (MATIN); test: Pre-emergence herbicidal action against MATIN; settings: dosage 320 g/ha
Method in brief: as §2

[11] = system: Pharbitis purpurea (PHBPU); test: Pre-emergence herbicidal action against PHBPU; settings: dosage 320 g/ha
Method in brief: as §2

[12] = system: Amaranthus retroflexus (AMARE); test: Pre-emergence herbicidal action against AMARE; settings: visual scoring after about 3 weeks vs untreated controls
Method in brief: as §2

[13] = system: Polygonum convolvulus (POLCO); test: Pre-emergence herbicidal action against POLCO
Method in brief: as §2

[14] = system: Alopecurus myosuroides (ALOMY); test: Post-emergence herbicidal action against ALOMY; settings: visual rating about 3 weeks after treatment vs untreated controls (100% = plants have died, 0% = like control plants)
Method in brief: as §1

[15] = system: Alopecurus myosuroides (ALOMY); test: Pre-emergence herbicidal action against ALOMY; settings: scored visually after about 3 weeks, 100% = plants have died
Method in brief: as §2

[16] = system: Echinochloa crus-galli (ECHCG); test: Pre-emergence herbicidal action against ECHCG
Method in brief: as §2

Lolium rigidum (LOLRI) [17] = test: Pre-emergence herbicidal action against LOLRI
Method in brief: as §2

Setaria viridis (SETVI) [18] = test: Pre-emergence herbicidal action against SETVI
Method in brief: as §2

[19] = system: Abutilon theophrasti (ABUTH); test: Post-emergence herbicidal action against ABUTH; settings: 80 g/ha, visual rating about 3 weeks after treatment vs untreated controls (100% = plants have died, 0% = like control plants)
Method in brief: as §1

Viola tricolor (VIOTR) [20] = test: Post-emergence herbicidal action against VIOTR; settings: 320 g/ha
Method in brief: as §1

[21] = system: Polygonum convolvulus (POLCO); test: Post-emergence herbicidal action against POLCO
Method in brief: as §1

[22] = system: Echinochloa crus-galli (ECHCG); test: Post-emergence herbicidal action against ECHCG; settings: dosage 320 g/ha
Method in brief: as §1

[23] = 80 g/ha, visual rating about 3 weeks after treatment vs untreated controls (100% = plants have died, 0% = like control plants)

Compound	Pre-emergence action against VIOTR in % (Viola tricolor (VIOTR) [3]; 320 g/ha, Viola tricolor) [%]	Pre-emergence action against VIOTR in % (Viola tricolor (VIOTR) [3]; dosage 80 g/ha) [%]	Post-emergence action against AMARE in % [4, 23] [%]	Post-emergence action against SETVI in % (Setaria viridis (SETVI) [5]; dosage 80 g/ha) [%]	Pre-emergence action against VERPE in % [6] [%]	Pre-emergence action against AVEFA in % (Avena fatua (AVEFA) [9]; 320 g/ha) [%]	Pre-emergence action against MATIN in % [10] [%]	Pre-emergence action against PHBPU in % [11] [%]	Pre-emergence action against AMARE in % ([12]; 80 g/ha) [%]	Pre-emergence action against AMARE in % ([12]; 320 g/ha) [%]	Pre-emergence action against POLCO in % ([13]; dosage 80 g/ha) [%]	Pre-emergence action against POLCO in % ([13]; dosage 320 g/ha) [%]	Pre-emergence action against ALOMY ([15]; 80 g/ha) [%]	Pre-emergence action against ALOMY ([15]; 320 g/ha) [%]	Pre-emergence action against ECHCG in % ([16]; dosage 320 g/ha) [%]	Pre-emergence action against LOLRI in % (Lolium rigidum (LOLRI) [17]; dosage 80 g/ha) [%]	Pre-emergence action against LOLRI in % (Lolium rigidum (LOLRI) [17]; dosage 320 g/ha) [%]	Pre-emergence action against SETVI in % (Setaria viridis (SETVI) [18]; dosage 320 g/ha) [%]	other results
CC(C)=NOC(=O)[C@@H](C)Oc1nn(-c2ncccc2F)c(-c2ccc(F)nc2)c1Br [Example I-374]	100	90	80	90	100	100	90	90	100	100	80	90	90	100	100	80	100	100	Post-emergence action against MATIN in % ([1]; dosage 80 g/ha): 80%; Post-emergence action against LOLRI in % (Lolium rigidum (LOLRI) [2]; dosage 80 g/ha): 90%; Post-emergence action against ORYSA in % (Oryza sativa (ORYSA); 20 g/ha, effect vs untreated controls): 10%; Post-emergence action against ZEAMX in % (crop plant compatibility) (Zea mays (ZEAMX); 20 g/ha, ZEAMX, effect in comparison to untreated controls): 10%; Post-emergence action against AVEFA in % (Avena fatua (AVEFA) [7]; 80 g/ha): 90%; Post-emergence action against VERPE in % ([8]; dosage 80 g/ha): 80%; Post-emergence action against ALOMY in % ([14]; 80 g/ha): 100%; Post-emergence action against ABUTH in % [19]: 80%
C[C@@H](Oc1nn(-c2ccccn2)c(-c2ccc(F)nc2)c1Cl)C(=O)NCC(=O)O [Example I-338]	100	100	80	90	100	90	80	80	100	100	100	100	100	100	100	100	100	100	Post-emergence action against VIOTR in % (Viola tricolor (VIOTR) [20]): 80%; Post-emergence action against MATIN in % ([1]; dosage 320 g/ha): 90%; Post-emergence action against LOLRI in % (Lolium rigidum (LOLRI) [2]; dosage 320 g/ha): 90%; Post-emergence action against AMARE in % ([4]; 320 g/ha, visual rating about 3 weeks after treatment): 80%; Post-emergence action against POLCO in % ([21]; dosage 80 g/ha): 80%; Post-emergence action against POLCO in % ([21]; dosage 320 g/ha): 80%; Post-emergence action against ORYSA in % (Oryza sativa (ORYSA); 80 g/ha, effect in comparison to untreated controls): 0%; Post-emergence action against ZEAMX in % (Zea mays (ZEAMX); crop plant compatibility, 80 g/ha, effect vs untreated controls): 0%; Post-emergence action against SETVI in % (Setaria viridis (SETVI) [5]; dosage 320 g/ha): 90%; Post-emergence action against AVEFA in % (Avena fatua (AVEFA) [7]; 320 g/ha): 90%; Post-emergence action against VERPE in % ([8]; 320 g/ha, VERPE): 90%; Pre-emergence action against AVEFA in % (Avena fatua (AVEFA) [9]; 80 g/ha): 90%; Post-emergence action against ALOMY in % ([14]; 320 g/ha): 90%; Pre-emergence action against ECHCG in % ([16]; dosage 80 g/ha): 90%; Post-emergence action against ECHCG in % [22]: 80%; Pre-emergence action against SETVI in % (Setaria viridis (SETVI) [18]; dosage 80 g/ha): 100%
